We go through 16 compounds from patent publication US20090197897A1, “Novel Oxadiazole Derivatives and Their Use as Positive Allosteric Modulators of Metabotropic Glutamate Receptors” (Addex Pharma SA, priority 2005, published 2009).

Bounds are passed on as bounds.

What is called EC50 is the concentration needed to bring the measured effect to its halfway point. By melting point is commonly meant the temperature, or range, at which the solid turns liquid. As a reminder, the IC50 is the concentration needed to halve the response being measured. Lower therefore signals higher potency.

In one data set the target is T1, rat mGluR5 (Rattus norvegicus, UniProt P31424).
T1 construct: expressed in transfected cells
T1 sequence (P31424 21-1171 isoform P31424-2 limits assumed): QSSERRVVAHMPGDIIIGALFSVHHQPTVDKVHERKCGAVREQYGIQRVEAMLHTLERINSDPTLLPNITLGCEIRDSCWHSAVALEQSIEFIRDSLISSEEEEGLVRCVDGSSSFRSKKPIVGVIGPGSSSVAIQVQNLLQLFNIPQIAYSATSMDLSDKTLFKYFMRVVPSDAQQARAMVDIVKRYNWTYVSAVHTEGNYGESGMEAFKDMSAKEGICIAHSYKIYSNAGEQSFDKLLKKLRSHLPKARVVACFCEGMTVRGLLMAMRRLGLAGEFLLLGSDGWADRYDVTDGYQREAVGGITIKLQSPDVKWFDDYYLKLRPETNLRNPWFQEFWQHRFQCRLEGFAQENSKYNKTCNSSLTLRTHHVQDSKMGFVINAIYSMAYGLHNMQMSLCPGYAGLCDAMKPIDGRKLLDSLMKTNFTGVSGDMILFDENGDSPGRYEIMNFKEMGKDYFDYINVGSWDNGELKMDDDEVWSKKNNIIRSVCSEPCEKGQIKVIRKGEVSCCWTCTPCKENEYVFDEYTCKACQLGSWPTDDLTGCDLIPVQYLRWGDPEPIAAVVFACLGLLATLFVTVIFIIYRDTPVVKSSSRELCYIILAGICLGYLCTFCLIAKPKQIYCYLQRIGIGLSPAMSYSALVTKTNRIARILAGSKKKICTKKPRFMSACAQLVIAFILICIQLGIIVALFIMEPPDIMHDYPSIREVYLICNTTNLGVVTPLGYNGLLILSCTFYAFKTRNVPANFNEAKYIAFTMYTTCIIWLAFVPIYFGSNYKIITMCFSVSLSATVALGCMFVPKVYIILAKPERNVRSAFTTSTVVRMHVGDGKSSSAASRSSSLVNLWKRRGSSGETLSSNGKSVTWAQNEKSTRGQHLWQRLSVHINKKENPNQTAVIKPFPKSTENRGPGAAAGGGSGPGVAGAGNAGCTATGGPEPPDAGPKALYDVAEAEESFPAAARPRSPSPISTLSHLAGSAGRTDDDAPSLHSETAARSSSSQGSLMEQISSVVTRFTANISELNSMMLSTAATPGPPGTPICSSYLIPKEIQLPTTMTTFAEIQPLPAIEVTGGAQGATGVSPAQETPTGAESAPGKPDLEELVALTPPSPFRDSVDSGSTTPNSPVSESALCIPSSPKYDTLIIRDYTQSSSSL
The data set is described as follows: mGluR5 assay on HEK-expressing rat mGluR5 (fluorescent cell based Ca2+ mobilization assay). The following applies: for activation of rat mGluR5 receptors in HEK-rat mGluR5 cell line: without co-addition of glutamate or mGluR5 agonist; for EC50: HEK-293 cells stably expressing rat mGluR5, no co-addition of glutamate, mean of at least three independent experiments in duplicate, read-out: Ca++ Flux (mean EC50). Summed up:
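HEK-293 cells stably expressing rat mGluR5, Fluo-4 loaded 60 min, in HEPES buffer pH 7.4 with sulfinpyrazone; compound (0.01 to 60 μM, 0.3% DMSO) added alone, no glutamate co-addition, and Ca2+ fluorescence followed 3 min by FLIPR. Duplicate points; EC50 from four-parameter logistic fit, mean of at least three experiments.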
(In general: Calcium flux is commonly read through the fluorescence of an indicator in the cells.)

Data set [1] has as its target T2, mGluR5 (Rattus norvegicus, UniProt P31424).
T2 construct: positive allosteric modulators of mGluR5 receptors in native preparations; endogenous in cells; host or cells: primary cortical astrocytes from Sprague-Dawley rat embryos (day 16 to 19)
The following applies: Liu et al 2006, Zhang et al 2005; cited from earlier work.

The test system of data set [2] is amphetamine-induced locomotor activation in mice. The data set is described as follows: Amphetamine model of schizophrenia (amphetamine-induced locomotor activity). In kind it is in vivo. Conditions: 30 & 50 mg/kg ip, 30 min before amphetamine 3.0 mg/kg s.c., 60 min. The text has this: Amphetamine-induced increases in locomotor ambulation are well known and are widely used as a model of the positive symptoms of schizophrenia. This model is based on evidence that amphetamine increases motor behaviors and can induce a psychotic state in humans (Yui et al. (2000) Ann NY Acad Sci 914:1-12). Further, it is well known that amphetamine-induced increases in locomotor activity are blocked by antipsychotics drugs that are effective in the treatment of schizophrenia (Arnt (1995) Eur J Pharmacol 283:55-62). […]
Assessment of locomotor (ambulatory) activity: The effects of compounds on amphetamine-induced locomotor activation in mice were tested. […] Locomotor activity (ambulations) was monitored by a videotracking system (VideoTrack, Viewpoint, Champagne au Mont d'Or, France) that recorded the ambulatory movements of mice. […] Mice were placed into the locomotor boxes immediately after the amphetamine injection and their locomotor activity, defined as the distance traveled in centimeters (cm), was measured for 60 minutes. […]
Statistical analyses: Statistical analyses were performed using GraphPad PRISM statistical software (GraphPad, San Diego, Calif., USA). Data were analyzed using one-way analysis of variance (ANOVA) followed by post-hoc Bonferroni-corrected multiple comparisons, where appropriate. […]

Data set [3] deals with T2, mGluR5. The data set is described as follows: mGluR5 binding assay ([3H]-MPEP, rat brain membranes). The following applies: 3 nM [3H]-MPEP, 1 h at 4° C. The source says:
Activity of compounds of the invention was examined following a radioligand binding technique using whole rat brain and tritiated 2-methyl-6-(phenylethynyl)-pyridine ([^3H]-MPEP) as a ligand following similar methods than those described in Gasparini et al. (2002) Bioorg. Med. Chem. Lett. 12:407-409 and in Anderson et al. (2002) J. Pharmacol. Exp. Ther. 303 (3) 1044-1051.
Cortices were dissected out from brains of 200-300 g Sprague-Dawley rats (Charles River Laboratories, L'Arbresle, France). Tissues were homogenized in 10 volumes (vol/wt) of ice-cold 50 mM Hepes-NaOH (pH 7.4) using a Polytron disrupter (Kinematica AG, Luzern, Switzerland) and centrifuged for 30 min at 40,000 g. (4° C.). […] Protein concentration was determined by the Bradford method (Bio-Rad protein assay, Reinach, Switzerland) with bovine serum albumin as standard.
Membranes were thawed and resuspended in binding buffer containing 20 mM HEPES-NaOH, 3 mM MgCl2, 3 mM CaCl2, 100 mM NaCl, pH 7.4. […] Radioactivity was determined by liquid scintillation spectrometry using a 96-well plate reader (TopCount, Perkin-Elmer, Downers Grove, USA).
The inhibition curves were generated using the Prism GraphPad program (Graph Pad Software Inc, San Diego, USA). […] The mean of IC50 obtained from at least three independent experiments of selected molecules performed in duplicate were calculated.

T2 sequence (P31424 21-1203): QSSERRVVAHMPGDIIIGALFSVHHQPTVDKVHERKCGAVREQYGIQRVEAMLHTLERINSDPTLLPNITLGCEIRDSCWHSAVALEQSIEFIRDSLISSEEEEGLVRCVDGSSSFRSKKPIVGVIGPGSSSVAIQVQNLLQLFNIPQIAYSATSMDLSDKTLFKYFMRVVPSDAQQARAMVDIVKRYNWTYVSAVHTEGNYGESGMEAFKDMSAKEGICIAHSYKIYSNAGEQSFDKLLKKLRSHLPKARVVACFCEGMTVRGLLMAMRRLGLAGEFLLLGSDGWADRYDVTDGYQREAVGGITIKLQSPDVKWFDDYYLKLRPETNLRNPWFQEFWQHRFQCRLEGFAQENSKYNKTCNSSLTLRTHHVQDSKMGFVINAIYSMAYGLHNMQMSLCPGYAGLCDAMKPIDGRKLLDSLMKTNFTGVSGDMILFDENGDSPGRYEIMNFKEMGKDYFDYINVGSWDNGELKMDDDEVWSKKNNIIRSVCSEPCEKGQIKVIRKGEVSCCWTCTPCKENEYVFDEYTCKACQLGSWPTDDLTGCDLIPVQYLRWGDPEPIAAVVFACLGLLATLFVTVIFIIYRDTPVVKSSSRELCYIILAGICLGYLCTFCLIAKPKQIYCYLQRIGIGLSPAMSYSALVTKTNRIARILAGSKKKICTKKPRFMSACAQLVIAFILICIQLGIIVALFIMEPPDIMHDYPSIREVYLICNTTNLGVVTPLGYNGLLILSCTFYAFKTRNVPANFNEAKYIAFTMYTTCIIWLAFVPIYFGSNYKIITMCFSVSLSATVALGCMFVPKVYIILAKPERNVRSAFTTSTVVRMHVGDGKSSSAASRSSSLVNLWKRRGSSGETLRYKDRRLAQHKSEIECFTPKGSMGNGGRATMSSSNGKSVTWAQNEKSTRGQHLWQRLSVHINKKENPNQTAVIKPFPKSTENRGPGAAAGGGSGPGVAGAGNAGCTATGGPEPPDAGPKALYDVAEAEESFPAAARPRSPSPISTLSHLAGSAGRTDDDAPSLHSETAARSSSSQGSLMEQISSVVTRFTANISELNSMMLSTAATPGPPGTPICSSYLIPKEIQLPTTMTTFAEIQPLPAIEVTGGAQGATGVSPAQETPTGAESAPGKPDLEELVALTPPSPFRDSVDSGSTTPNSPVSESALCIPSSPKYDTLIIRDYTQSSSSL

`N#Cc1cccc(C(=O)Nc2cc(-c3ccccc3)nn2-c2ccccc2)c1` [CDPPB, reference compound]: the “activation of rat mGluR5 receptors in HEK-rat mGluR5 cell line” value (“activation of rat mGluR5 receptors” below) at rat mGluR5 was “activating”. For the same compound, at mGluR5 [1], the “activity in rat cortical astrocytes culture in the absence of added glutamate” value (from here on “activity … of added glutamate”) was “inactive”.

Regarding `Fc1cccc(/C=N/N=C/c2cccc(F)c2)c1` [DFB, reference compound], the “activation of rat mGluR5 receptors” value at rat mGluR5 is reported as “activating”. For the same compound, the “activity … of added glutamate” value on mGluR5 [1] is “inactive”.

In the case of `O=C(Nc1ccc(Cl)cc1CN1C(=O)c2ccccc2C1=O)c1ccccc1O` [CPPHA, reference compound], the “activation of rat mGluR5 receptors” value at rat mGluR5 is reported as “activating”. Besides, the “activity … of added glutamate” value at mGluR5 [1] is “inactive”.

With `O=C(c1ccc(F)cc1)N1CCC=C(c2nc(-c3ccc(F)cc3)no2)C1` [Example 1, (4-Fluoro-phenyl)-{5-[3-(4-fluoro-phenyl)-[1,2,4]oxadiazol-5-yl]-3,6-dihydro-2H-pyridin-1-yl}-methanone], the melting point was in the range of 138 to 140 °C. For the same compound, at rat mGluR5, the EC50 lay within 1 to 10 µM.

The compound `Cc1ncccc1C(=O)N1CCC[C@H](c2nc(-c3ccc(F)cc3)no2)C1` [Example 16, {(S)-3-[3-(4-Fluoro-phenyl)-[1,2,4]oxadiazol-5-yl]-piperidin-1-yl}-(2-methyl-pyridin-3-yl)-methanone] yielded a melting point of 115 to 116 °C. Further, on rat mGluR5, the EC50 is 1 to 10 µM.

With `Cc1oncc1C(=O)N1CCC[C@H](c2nc(-c3ccc(F)cc3)no2)C1` [Example 5, (S)-{3-[3-(4-Fluoro-phenyl)-[1,2,4]oxadiazol-5-yl]-piperidin-1-yl}-(5-methyl-isoxazol-4-yl)-methanone], the EC50 on rat mGluR5 is below 1 µM. Besides, the “increase in locomotor activity induced by amphetamine” value in data set [2] (listed as compound # 5) is “significantly attenuated”; in data set [2] (listed as example 5) it was “significantly attenuate”.

In turn, `O=C(c1ccc(F)cc1)N1CCCC1Cc1nc(-c2ccc(F)cc2)no1` (stereo not drawn) [Example 2, (4-Fluoro-phenyl)-{2-[3-(4-fluoro-phenyl)-[1,2,4]oxadiazol-5-ylmethyl]-pyrrolidin-1-yl}-methanone] showed a melting point of 158 to 162 °C. Besides, the EC50 on rat mGluR5 lay within 1 to 10 µM.

`CN(C)c1ccc(-c2noc([C@H]3CCCN(C(=O)c4ccc(F)cc4)C3)n2)cc1` [Example 58, {(S)-3-[3-(4-Dimethylamino-phenyl)-[1,2,4]oxadiazol-5-yl]-piperidin-1-yl}-(4-fluoro-phenyl)-methanone]: the melting point lay in the range of 147 to 153 °C. At rat mGluR5, the EC50 is above 10 µM.

Regarding `O=C(c1ccc(F)c(F)c1)N1CCC[C@H](c2nc(-c3ccncc3)no2)C1` [Example 52, (3,4-Difluoro-phenyl)-[(S)-3-(3-pyridin-4-yl-[1,2,4]oxadiazol-5-yl)-piperidin-1-yl]-methanone], the melting point was 102 to 106 °C. The EC50 on rat mGluR5 is below 1 µM.

As to `Cc1cc(C(=O)N2CCC[C@H](c3nc(-c4ccc(F)cc4)no3)C2)c(C)o1` [Example 23, (2,5-Dimethyl-furan-3-yl)-{(S)-3-[3-(4-fluoro-phenyl)-[1,2,4]oxadiazol-5-yl]-piperidin-1-yl}-methanone], the melting point lay within 114 to 118 °C. Moreover, the EC50 at rat mGluR5 was below 1 µM.

`Cc1c[nH]cc1C(=O)N1CCC[C@H](c2nc(-c3ccc(F)cc3)no2)C1` [Example 43, {(S)-3-[3-(4-Fluoro-phenyl)-[1,2,4]oxadiazol-5-yl]-piperidin-1-yl}-(4-methyl-1H-pyrrol-3-yl)-methanone]: the melting point was in the range of 167.5 to 168.9 °C. The concentration giving a half-maximal response (EC50) on rat mGluR5 lay within 1 to 10 µM.

Consider `O=C(c1ccc(F)nc1)N1CCC[C@H](c2nc(-c3ccc(F)cc3)no2)C1` [Example 29, (S)-{3-[3-(4-Fluoro-phenyl)-[1,2,4]oxadiazol-5-yl]-piperidin-1-yl}-(6-fluoro-pyridin-3-yl)-methanone], for which the EC50 on rat mGluR5 is below 1 µM. For the same compound, the IC50 at mGluR5 [3] is below 30 µM.

Consider `O=C(c1ccc(F)c(F)c1)N1CCC[C@H](c2nc(-c3ccsc3)no2)C1` [Example 45, (3,4-Difluoro-phenyl)-[(S)-3-(3-thiophen-3-yl-[1,2,4]oxadiazol-5-yl)-piperidin-1-yl]-methanone], for which the melting point lay within 92 to 97 °C. Further, the EC50 on rat mGluR5 is below 1 µM.

The compound `COc1cc(C(=O)N2CCC[C@H](c3nc(-c4ccc(F)cc4)no3)C2)ccc1F` [Example 26, (S)-(4-Fluoro-3-methoxy-phenyl)-{3-[3-(4-fluoro-phenyl)-[1,2,4]oxadiazol-5-yl]-piperidin-1-yl}-methanone] yielded a melting point of 109 to 111 °C. Further, at rat mGluR5, the EC50 is 1 to 10 µM.

In turn, `N#Cc1cc(C(=O)N2CCC[C@H](c3nc(-c4ccc(F)cc4)no3)C2)ccc1F` [Example 3, 2-Fluoro-5-{(S)-3-[3-(4-fluoro-phenyl)-[1,2,4]oxadiazol-5-yl]-piperidine-1-carbonyl}-benzonitrile] registered a melting point of 144 to 146 °C. In addition, at rat mGluR5, the EC50 was in the range of 1 to 10 µM.

For `O=C(c1c(F)cc(F)cc1F)N1CCC[C@H](c2nc(-c3ccc(F)cc3)no2)C1` [Example 12, {(S)-3-[3-(4-Fluoro-phenyl)-[1,2,4]oxadiazol-5-yl]-piperidin-1-yl}-(2,4,6-trifluoro-phenyl)-methanone], the melting point is 125 to 130 °C. Besides, on rat mGluR5, the EC50 is 1 to 10 µM.
